Assays:
[1] = pH of hydrated iron proteinate with or without added compound (Example 4); assay type: physicochemical; conditions: compound added to iron proteinate solution, compound to iron content about 1:1 by weight
Protocol: (§1) A small amount of the solution was placed on filter paper with a pipette. […] Next, several different organic acids and sugars were added to various samples of the solution. Each was inspected both visually and by placing a small amount of solution on filter paper with a pipette.

[2] = Visual inspection of hydrated iron proteinate with or without added compound (Example 4); assay type: physicochemical; conditions: compound added to iron proteinate solution, compound to iron content about 1:1 by weight
Protocol: as §1

[3] = Filter paper ring characterization of hydrated iron proteinate (Example 4); assay type: physicochemical; conditions: compound added to iron proteinate solution, about 1:1 by weight to iron
Protocol: An iron proteinate or iron protein hydrolysate which was hydrolyzed from a vegetable protein was formed having an iron content of about 10%. […] A small amount of the solution was placed on filter paper with a pipette. […] Next, several different organic acids and sugars were added to various samples of the solution. Each was inspected both visually and by placing a small amount of solution on filter paper with a pipette. […] This is evidenced by darker rings remaining on the filter paper which corresponded to location of the waterfront.

[4] = Visual inspection of aqueous iron bisglycinate with added compound (Example 3); assay type: physicochemical; conditions: compound added to aqueous iron bisglycinate, compound to iron content about 1.8:1 by weight
[5] = Filter paper ring characterization of aqueous iron bisglycinate (Example 3); assay type: physicochemical; conditions: for RING APPEARANCE: compound added to aqueous iron bisglycinate, about 1.8:1 by weight to iron, filter paper after drying
[6] = Filter paper test of hydrated samples (Example 1, Phase 1); assay type: physicochemical; conditions: hydrated with water sufficient to dissolve, after 4 hours, solution placed on filter paper with pipette
Protocol: After hydrating Sample 1 and Sample 2 with an amount of water sufficient to dissolve the respective powders and allowing 4 hours to pass, a small amount of each solution was placed on filter paper with a pipette. By placing the two solutions on paper in this manner, the respective solutions were allowed to disperse away from the point of application while leaving behind any solids that may have formed.

[7] = Visual examination of solutions retained in test tubes (Example 1, Phase 2); conditions: solution retained in test tube 20 additional hours (after first 4 hours)

Compound | pH [1] | VISUAL [2] | RING APPEARANCE [3] | VISUAL [4] | RING APPEARANCE [5] | mobility and solubility on the filter paper ([5]; added to separate samples of iron bisglycinate, versus control) | solids left behind on filter paper [6] | portion precipitated from solution (visual examination) [7]
CC(=O)O [Acetic Acid] | 3.0 | no change | dark brown waterfront ring | – | – | – | – | –
O=C1O[C@H]([C@@H](O)CO)C(O)=C1O [Ascorbic Acid] | 4.5 | no change | dark brown waterfront ring | no precipitation | dark waterfront ring | – | – | –
CC(O)C(=O)O (centres unmarked) [Lactic Acid] | 1.0 | no change | dark brown waterfront ring | no precipitation | dark waterfront ring | – | – | –
NCC(=O)[O-].NCC(=O)[O-].[Fe+2] [Sample 1, ferrous bisglycinate] | – | – | – | – | – | – | small clump of precipitate | approximately 50%
OC[C@H]1O[C@@](CO)(O[C@H]2O[C@H](CO)[C@@H](O)[C@H](O)[C@H]2O)[C@@H](O)[C@@H]1O [Sucrose] | 7.0 | no change | brown staggered rings | precipitated solids | light staggered ring | – | – | –

Further lines, with some results ahead:

pH [1] | VISUAL [2] | RING APPEARANCE [3] | VISUAL [4] | RING APPEARANCE [5] | mobility and solubility on the filter paper ([5]; added to separate samples of iron bisglycinate, versus control) | Compound | solids left behind on filter paper [6] | portion precipitated from solution (visual examination) [7]
1.5 | no change | dark brown waterfront ring | – | – | – | O=C(O)CC(O)(CC(=O)O)C(=O)O [Citric Acid] | – | –
2.0 | no change | dark brown waterfront ring | no precipitation | dark waterfront ring | enhancement of mobility and solubility | O=C(O)CC(O)C(=O)O (centres unmarked) [Malic Acid] | – | –
2.0 | no change | dark brown waterfront ring | – | – | – | O=C(O)CCC(=O)O [Succinic Acid] | – | –

— patent US6716814B2, “Enhancing solubility of iron amino acid chelates and iron proteinates” (Albion International, Inc., priority 2001, dated 2004)
